Patent US20080145372A1, “Bioreductively-Activated Prodrugs” (ANGIOGENE, PHARMACEUTICALS LIMITED, priority 2004, published 2008)

Assay: Pulse radiolysis: fragmentation of radical anions
Conditions: prodrug 40 μM, N2O-saturated 50% aqueous 2-propanol, pH 7.4-9.0
Description: The rate of fragmentation of intermediate radical anions produced by one-electron reduction is an important determinant of bioreductive prodrug action and can be measured by pulse radiolysis. The magnitude of the rate constant of radical fragmentation indicates the ability of the prodrugs to deliver the drug under hypoxia. The radicals were generated by reduction of the parent prodrugs (40 μM) by the 2-propanol radical generated radiolytically in an N2O-saturated 50% aqueous 2-propanol buffered to pH 7.4-9.0 with potassium phosphate (4 mM). Experiments were performed with a 6 Me V linear accelerator to generate an electron pulse of around 500 ns.
For CC(OC(=O)Nc1ccn([C@@H]2O[C@H](CO)[C@@H](O)[C@@H]2O)c(=O)n1)c1ccc([N+](=O)[O-])s1 (stereo partly drawn) [Example 1, N^4-(1-(5-nitrothien-2-yl)ethyl)oxycarbonyl-1-β-D-arabinofuranosylcytosine], the “First-order rate constant k for the decay of radical anions produced by pulse radiolysis” value (“First-order rate constant k” for short) was 49 s⁻¹.
In the case of O=C(Nc1ccn([C@@H]2O[C@H](CO)[C@@H](O)[C@@H]2O)c(=O)n1)OCc1ccc([N+](=O)[O-])s1 [Example 2, N^4-(5-nitrothien-2-yl)methoxycarbonyl-1-β-D-arabinofuranosylcytosine], the “First-order rate constant k” value is reported as 12 s⁻¹.
With CC(OC(=O)Nc1ccn([C@@H]2O[C@H](CO)[C@@H](O)C2(F)F)c(=O)n1)c1ccc([N+](=O)[O-])s1 (stereo partly shown) [Example 3, N^4-(1-(5-nitrothien-2-yl)ethyl)oxycarbonyl-2′,2′-difluoro-2′-deoxycytidine] the “First-order rate constant k” value was 102 s⁻¹.
With CC(=O)OC[C@H]1O[C@@H](n2ccc(NC(=O)OC(C)c3ccc([N+](=O)[O-])s3)nc2=O)[C@@H](OC(C)=O)[C@@H]1OC(C)=O (stereo partly drawn) [Example 4, Tri-O-acetyl-N^4-(1-(5-nitrothien-2-yl)ethyl)oxycarbonyl-1-β-D-arabinofuranosylcytosine] the “First-order rate constant k” value was 245 s⁻¹.
With Cn1c(COC(=O)Nc2ccn([C@@H]3O[C@H](CO)[C@@H](O)C3(F)F)c(=O)n2)cnc1[N+](=O)[O-] [Example 5, N^4-(2-nitro-1-methylimidazol-5-yl)methoxycarbonyl-2′,2′-difluoro-2′-deoxycytidine] the “First-order rate constant k” value was 18 s⁻¹.
With O=C(Nc1ccn([C@@H]2O[C@H](CO)[C@@H](O)C2(F)F)c(=O)n1)OCc1ccc([N+](=O)[O-])s1 [Example 6, N^4-(5-nitrothien-2-yl)methoxycarbonyl-2′,2′-difluoro-2′-deoxycytidine] the “First-order rate constant k” value was 20 s⁻¹.
For O=C(Nc1ncnc2c1ncn2[C@@H]1O[C@H](CO)[C@@H](O)[C@@H]1O)OCc1ccc([N+](=O)[O-])s1 [Example 8, N^6-(5-nitrothien-2-yl)methoxycarbonyl-9-β-D-arabinofuranosyladenine], the “First-order rate constant k” value was 148 s⁻¹.
In the case of CC(=O)O[C@@H]1[C@H](OC(C)=O)[C@@H](C)O[C@H]1n1cc(F)c(NC(=O)OCc2ccc([N+](=O)O)s2)nc1=O [Example 9, 5′-Deoxy-2′,3′-di-O-acetyl-5-fluoro-N^4-((5-nitrothien-2-yl)methoxycarbonyl)cytidine], the “First-order rate constant k” value is reported as 22 s⁻¹.
With O=C(Nc1nc(F)nc2c1ncn2[C@@H]1O[C@H](CO)[C@@H](O)[C@@H]1O)OCc1ccc([N+](=O)[O-])s1 [Example 10, 2-fluoro-N^6-(5-nitrothien-2-yl)methoxycarbonyl-9-O-D-arabinofuranosyladenine] the “First-order rate constant k” value was 144 s⁻¹.
For CC(OC(=O)Nc1ccn([C@@H]2O[C@H](CO)[C@@H](O)[C@@H]2O)c(=O)n1)c1ccc([N+](=O)[O-])cc1 (stereo partly drawn) [Example 11, N^4-(1-(4-nitrophenyl)ethoxycarbonyl)-1-β-D-arabinofuranosylcytosine], the “First-order rate constant k” value was 0.4 s⁻¹.
With O=C(Nc1ccn([C@@H]2O[C@H](CO)[C@@H](O)[C@@H]2O)c(=O)n1)OCc1ccc([N+](=O)[O-])o1 [Example 12, N^4-(5-nitrofuran-2-yl)methoxycarbonyl-1-β-D-arabinofuranosylcytosine] the “First-order rate constant k” value was 5.5 s⁻¹.
In the case of O=C(Nc1ccn([C@@H]2O[C@H](CO)[C@@H](O)[C@@H]2O)c(=O)n1)OCc1ccc([N+](=O)[O-])cc1 [N^4-(4-nitrophenyl)methoxycarbonyl-1-β-D-arabinofuranosylcytosine, reference compound], the “First-order rate constant k” value is reported as “too small to measure”.

Assay: not given
Conditions: not given
Work on O=C(Nc1ccn([C@@H]2O[C@H](CO)[C@@H](O)C2(F)F)c(=O)n1)OCc1ccc([N+](=O)[O-])s1 [Example 6, N^4-(5-nitrothien-2-yl)methoxycarbonyl-2′,2′-difluoro-2′-deoxycytidine] yielded a melting point of 144 to 148 °C.
